Data reported in patent publication US11229629B2, “Inhibitors of mitochondrial fission” (Queen's University at Kingston, priority 2019, dated 2022).

What was measured:
A549 cells = assay: Mitochondrial morphology analysis (MFC, machine learning) in A549 cells; conditions: for Concentration (dose) at which mitochondrial fission was inhibited: in vitro screening
Method: Cell Culture: A549 cells were purchased from the American Type Culture Collection (ATCC) and were cultured in Dulbecco's Modified Eagle's Medium (DMEM) (D5796, Sigma Aldrich) supplemented with 10% fetal bovine serum (FBS). Cells were cultured at 37° C. in a humidified incubator balanced with 5% CO2.
Compound solution preparation for in vitro experiments: Candidate compounds were dissolved in anhydrous Dimethyl Sulfoxide (DMSO) (available from Sigma Aldrich), filtered by a 0.20 μm PTFE filter and added to culture medium to make a working solution at designated concentrations. Final concentration of DMSO in culture medium was s 0.1%. Same volume of DMSO was used as control.
(§4) Higher MFC indicates more fragmented mitochondrial network.
Mitochondrial morphology was used as an indicator of Drp1 activity in the in vitro screening, such that Drp1 inhibitors would be identified by an increase in fusion.

SK-LU-1 [1] = assay: Mitochondrial fragmentation count in SK-LU-1 cells; type: cell-based; conditions: 0.1-0.5 μM of Drpitor1a
SK-MES-1 [2] = assay: Apoptosis assay (Annexin V/PI) in SK-MES-1 cells; type: cell-based; conditions: 0.25-0.5 μM of Drpitor1a
Method: (§5) Apoptosis assay: Cell apoptosis was determined by the Annexin V+ propidium iodide (PI) method using Alexa Fluor 488 Annexin V/Dead Cell Apoptosis Kit (available from ThermoFisher Scientific). A549 cells were collected 48 hours after compound treatment. Percentage of Annexin V (+) and PI (+) cells was determined using SONY S[MUT] flow cytometer and compared between control group and treatment groups.

SK-LU-1 [3] = assay: Apoptosis assay (Annexin V/PI) in SK-LU-1 cells; type: cell-based; conditions: 0.25-0.5 μM of Drpitor1a
Method: as §5

[4] = system: right ventricle ischemia-reperfusion injury; conditions: 0.5 μM in perfusate; ex vivo rat heart
Method: Briefly, Sprague-Dawley rats were anesthetized with an intraperitoneal injection of ketamine (75 mg/kg)/xylazine (10 mg/kg). The hearts were harvested and perfused with oxygenated Krebs' solution at 37° C. at a constant pressure of 85 cmH2O on a Langendorff apparatus. RV pressure was measured by a fluid-filled balloon placed in the RV connected to a pressure transducer (Harvard Apparatus; Holliston, Mass., USA). High fidelity signals were recorded using PowerLab 8/35 data acquisition hardware and analyzed using LabChart Pro 8 software (AD Instruments; Colorado Springs, Colo., USA).
IR protocol: Hearts were stabilized for 10 minutes before the IR experiment. Two consecutive cycles of 20 minutes of global ischemia followed by 20 minutes of reperfusion were performed. […] Same volume of DMSO was used as a negative control for test compound. […]
Mitochondrial superoxide imaging and quantification: RV tissues collected from Langendorff RV-IR experiments were cut into pieces of 1×1×1 mm^3 and were incubated with 5 μM of MitoSOX™ Red mitochondrial superoxide indicator (available from Molecular Probes™) at 37° C. for 15 minutes. […] Intensity of the MitoSOX™ Red mitochondrial superoxide indicator was analyzed by the Leica LAS X software.
Test compound was added to the perfusate prior to IR. […] After IR, RV myocardium was collected and mitochondrial superoxide was measured.

U87 (Glioblastoma cells) = assay: Cell proliferation of U87 cells; type: cell-based; conditions: 0.15~2.5 μM of Drpitor1a, Ctrl = 1
Method: (§1) Cell proliferation assay: Cell proliferation was measured 48 hours post compound treatment using Click-iT® EdU Alexa Fluor® 488 Imaging Kit (available from Thermo Fisher Scientific) according to manufacturer's protocol. 1.0×10^5 cells were seeded per well in 6-well plates and compounds were added 24 hours after seeding. EdU was allowed to incorporate 10 hours before flow cytometry. Percentage of cells incorporated with EdU in each group was determined using SONY SH800S flow cytometer and compared between control group and treatment groups.

SK-MES-1 [5] = assay: Cell proliferation assay (EdU) in SK-MES-1 cells; type: cell-based; conditions: 0.5 μM of Drpitor1a
Method: as §1

MCF7 [6] = assay: Cell proliferation assay (EdU) in MCF7 cells; type: cell-based; conditions: 0.5 μM of Drpitor1a
Method: as §1

[7] = system: A549 cells xenotransplant tumor; assay: In vivo xenotransplant tumor model of human lung cancer; design: species or system mouse; conditions: 10 mg/kg intraperitoneally and intratumorally; end of study
Excerpt: (§2) In vivo xenotransplant tumor model: BALB/c Rag2^−/−; IL2Rgc^−/− double knock out mice were kindly provided by Dr. M Ito, Central Institute for Experimental Animals, Kawasaki, Japan and were bred in the Animal Facility at Queen's University. Animal protocols were approved by the University Animal Care Committee of Queen's University. A xenotransplant mouse model of human lung cancer was established by subcutaneous injection of A549 cells ([…] per tumor) at the back flank regions. […] Equal volumes of solvents were injected as control. […] Tumor length and width was measured every 2 days. Animals were euthanized with cervical dislocation under 5% isoflurane inhalation followed by tumor collection. Blood samples were collected for liver and kidney toxicity studies just before euthanasia.

SW 900 [8] = assay: Cell proliferation assay (EdU) in SW 900 cells; type: cell-based; conditions: 0.5 μM of Drpitor1a
Method: as §1

[9] = system: Daoy cells (Medulloblastoma cells); assay: Cell proliferation of Daoy cells; type: cell-based; conditions: 0.15~2.5 μM of Drpitor1a, Ctrl = 1
Method: as §1

MCF7 [10] = assay: Colony formation assay in MCF7 cells; type: cell-based; conditions: 0.5 μM of Drpitor1a
Method: (§3) Colony formation assay: Cells were seeded in 6-well plates and optimal concentrations of compounds were added 24 hours after seeding. After 48 hours of compound treatment, cells were disassociated with 0.25% trypsin-EDTA (25200114, Gibco, Burlington, ON, Canada) and reseeded in a 48-well plate at a density of 200 live cells/mL. After 7-10 days of culture, cells were fixed with 4% paraformaldehyde and then stained with 1% crystal violet (V5265, Millipore Sigma, Etobicoke, ON, Canada). Images of cell colonies were taken by a Panasonic LX3 digital camera (Kadoma, Osaka, Japan).

SK-LU-1 [11] = assay: Colony formation assay in SK-LU-1 cells; type: cell-based; conditions: 0.5 μM of Drpitor1a
Method: as §3

A549 [12] = assay: Colony formation assay in A549 cells; type: cell-based, human; conditions: 0.5 μM of Drpitor1a
Method: as §3

SW 900 [13] = assay: Apoptosis assay (Annexin V/PI) in SW 900 cells; type: cell-based; conditions: 0.25-0.5 μM of Drpitor1a
Method: as §5

SW 900 [14] = assay: Mitochondrial fragmentation count in SW 900 cells; type: cell-based; conditions: 0.1-0.5 μM of Drpitor1a
[15] = system: mutant mouse Drp1 K38A in siDrp1-treated A549 cells; assay: MFC in A549 cells transfected with siDrp1+mDrp1 K38A; conditions: FIG. 5A
[16] = system: U373 (Glioblastoma cells); assay: Cell proliferation of U373 cells; type: cell-based; conditions: 0.15~2.5 μM of Drpitor1a, Ctrl = 87.2
Method: as §1

A549 [17] = assay: Apoptosis assay (Annexin V/PI) in A549 cells; type: cell-based, human; conditions: 1.0 μM of Drpitor1, 0.25-0.5 μM of Drpitor1a, 48 hours
Method: Apoptosis assay: Cell apoptosis was determined by the Annexin V+ propidium iodide (PI) method using Alexa Fluor 488 Annexin V/Dead Cell Apoptosis Kit (available from ThermoFisher Scientific). A549 cells were collected 48 hours after compound treatment. Percentage of Annexin V (+) and PI (+) cells was determined using SONY S[…] flow cytometer and compared between control group and treatment groups.

SK-LU-1 [18] = assay: Cell proliferation assay (EdU) in SK-LU-1 cells; type: cell-based; conditions: 0.5 μM of Drpitor1a
Method: as §1

SK-MES-1 [19] = assay: Mitochondrial fragmentation count in SK-MES-1 cells; type: cell-based; conditions: 0.1-0.5 μM of Drpitor1a
[20] = Liver and kidney toxicity (blood samples), body weight in xenotransplant mice
Excerpt: as §2

mitochondrial complex I = assay: Mitochondrial complex I activity in A549 cells; type: cell-based, human; conditions: mdivi-1 50 μM, Drpitor1a 0.5 μM; FIG. 5C
A549 [21] = assay: Cell proliferation assay (EdU) in A549 cells; type: cell-based, human; conditions: for Cell proliferation: A549, 0.5 μM of Drpitor1a, 48 hours; for Percentage of EdU incorporated cells: mdivi-1 50 μM, Drpitor1 0.75 μM, Drpitor1a 0.5 μM, FIG. 6A
Method: as §1

MCF7 [22] = assay: Mitochondrial fragmentation count in MCF7 cells; type: cell-based; conditions: 0.1-0.5 μM of Drpitor1a
PAH PASMC cell lines = assay: Cell proliferation of PAH PASMC cell lines; type: cell-based, human; design: unit: % EdU-positive cells; conditions: 1.0 μM of Drpitor1a
Method: as §1

SK-MES-1 [23] = assay: Colony formation assay in SK-MES-1 cells; type: cell-based; conditions: 0.5 μM of Drpitor1a
Method: as §3

[24] = system: Drp1 knocked-down A549 cells; assay: MFC in Drp1 knocked-down A549 cells with FCCP-induced fission; type: cell-based, human; conditions: FIG. 5B
Method: as §4
Carbonyl cyanide-4-(trifluoromethoxy) phenylhydrazone (FCCP) was added, a mitochondrial oxidative phosphorylation uncoupler, to cells treated with siDrp1.

[25] = 10 mg/kg of Drpitor1a, blood before euthanasia

Structure (SMILES) | Concentration (dose) at which mitochondrial fission was inhibited (A549 cells; A549 cells) [µM] | Cell proliferation (U87 (Glioblastoma cells)) | Cell proliferation (SK-MES-1 [5]) | Cell proliferation (MCF7 [6]) | Cell proliferation (SW 900 [8]) | Cell proliferation [9] | Colony number (MCF7 [10]) | Colony number (SK-LU-1 [11]) | Colony number (A549 [12]) | MFC in cells transfected with siDrp1+mDrp1 K38A [15] | Concentration giving the same degree of inhibition of mitochondrial fission (potency) (A549 cells; A549 cells) [µM] | Cell proliferation [16] | Apoptosis (A549 [17]) | Cell proliferation (SK-LU-1 [18]) | Mitochondrial complex I activity in A549 cells (mitochondrial complex I) | Cell proliferation (A549 [21]) | Percentage of EdU incorporated cells (A549 [21]) | Cell proliferation (PAH PASMC cell lines; PAH PASMC cell line P1) | Cell proliferation (PAH PASMC cell lines; PAH PASMC cell line P3) | Cell proliferation (PAH PASMC cell lines; PAH PASMC cell line P7) | other results
N#Cc1cc2c3ccccc3[nH]c2c2ccccc12 [Compound 13] | 20 | – | – | – | – | – | – | – | – | – | – | – | – | – | – | – | – | – | – | – | Inhibition of mitochondrial fission (reduction in MFC) in in vitro screening (A549 cells; A549 cells, 17 compounds screened, FIG. 1): most significant inhibition of mitochondrial fission
O=C1c2ccncc2C(=O)c2c1[nH]c1ccccc21 [Drpitor1a] | – | 0.1084 ± 0.001408 | 5.523 ± 0.3613 | 3.437 ± 0.2325 | 28.37 ± 0.3712 | 0.7078 ± 0.005519 | 0 ± 0 | 0.6667 ± 0.3333 | 1.5 ± 0.2236 | this reduction was not seen | 0.5 | 45.33 ± 0.2728 | 25.06 ± 0.4675 | 5.04 ± 0.5525 | no significant change | 46 ± 0.8505 | significantly reduced | 3.367 ± 0.3335 | 0.7167 ± 0.05608 | 9.68 ± 0.563 | MFC (SK-LU-1 [1]): 0.3367 ± 0.03623; Apoptosis (SK-MES-1 [2]): 2.464 ± 0.131; Apoptosis (SK-LU-1 [3]): 3.6 ± 0.2292; Mean mitochondrial volume of cardiomyocytes during RV-IR [4]: increased mean mitochondrial volume; MitoSOX intensity (mitochondrial superoxide) in RV during IR [4]: lower MitoSOX intensity; Reduction in tumor volume [7]: 43.8%; Reduction in tumor weight [7]: 43.9%; Apoptosis (SW 900 [13]): 5.686 ± 0.1402; MFC (SW 900 [14]): 0.3345 ± 0.0309; Percentage area of elongated (filamentous) mitochondria, machine learning (A549 cells; FIG. 3B): increased percentage area of elongated mitochondria; MFC (SK-MES-1 [19]): 0.2291 ± 0.02596; Albumin [20, 25]: 26.75 ± 0.9465 g/L; BUN [20, 25]: 6.225 ± 1.186 mmol/L; Cholesterol [20, 25]: 4.188 ± 0.3317 mmol/L; Total bilirubin [20, 25]: 2.5 ± 0.324 µmol/L; Body weight ([20]; 10 mg/kg, 22 days of therapy): did not reduce body weight; Dose dependence of effect on cell proliferation (A549 [21]): dose-dependent; MFC (MCF7 [22]): 0.5479 ± 0.05737; Colony number (SK-MES-1 [23]): 0 ± 0; MFC on adding compound to siDrp1+FCCP treatment ([24]; A549, Drpitor1a 0.25 μM): reduction of MFC was not seen
N#CC(C#N)=NNc1ccc(OC(F)(F)F)cc1 [FCCP, carbonyl cyanide-4-(trifluoromethoxy)phenylhydrazone, reference compound] | – | – | – | – | – | – | – | – | – | – | – | – | – | – | – | – | – | – | – | – | Mitochondrial fission in Drp1 knocked-down A549 cells [24]: caused mitochondrial fission
COc1cc(-n2c(=S)[nH]c3ccccc3c2=O)c(Cl)cc1Cl [mdivi-1, mitochondrial division inhibitor 1, reference compound] | 20 | 0.9552 ± 0.01912 | 24.97 ± 3.38 | 8.217 ± 1.256 | 50.1 ± 0.7211 | 0.8464 ± 0.008105 | 7.167 ± 0.7491 | 2.5 ± 0.4282 | 0.5 ± 0.3416 | this reduction was not seen | 25 | 65.43 ± 0.06667 | 15.3 ± 0.5213 | 29.5 ± 1.652 | no significant change | 32.43 ± 1.481 | significantly reduced | 7.38 ± 0.1762 | 0.3567 ± 0.04372 | 7.78 ± 0.1882 | Colony number (SK-MES-1 [23]): 5.5 ± 0.5627
